# According to US9566311B2, “Pharmaceutical composition” (Ferring B.V., priority 2010, dated 2017):
# Numbered stars: 1 amine (or outer) side, 2 acyl side, 3 side chain; on linkers, the order of the positions; unused ones are H or OH. Bridge positions count the residues as written; N and C are the ends. Peptide text beside a SMILES is read from it. X1 = O=C(CCC[*:2])[*:1]
# How the values were obtained:
# [1] = in vivo, cited from earlier work
# [2] = Stability of FE 202767 in citrate and citrate-phosphate buffers at 40° C., intact peptide by HPLC; type: physicochemical
# Protocol: FE 202767 (Ferring) was synthesised by the method set out in WO2009/122285. FE 202767 was dissolved at a concentration of 0.2 mg/ml in either 25 mM citrate buffer (isotonic to saline) or 25 mM citrate-phosphate buffer (isotonic with saline) at varying pH (pH 5.0, 5.5, 6.0), by methods known in the art. The solutions were incubated at 40° C. for 176 days, with samples taken at day 0, 15, 30, 84, and 176.
# Samples were evaluated by HPLC to determine the amount of intact peptide remaining at the various time points, by methods well known in the art, comparing the % Area. of the intact peptide peak on the sampling day vs. % Area on Day 0.
# The HPLC method used an Agilent 1200 instrument. […] The Phenomenex MAX-RP C18, 2.0×150 mm, 4 μm, 80 Å column was at temperature 40 with UV detection at 210 nm. The injection volume was 10 μL.
# [3] = Stability of FE 202767 in various buffers at 40° C./75% RH for one and three months, HPLC; type: physicochemical
# Protocol: The method was similar to Example 7. FE 202767 (Ferring) was synthesised by the method set out in WO2009/122285. The FE 202767 was dissolved at a concentration of 0.2 mg/ml in either 25 mM citrate buffer (citric acid/Na citrate), 10 mM acetate buffer (acetic acetate/Na acetate) or 10 mM succinate buffer (1 mM succinic acid+NaOH to relevant pH) at varying pH (pH 5.0, 5.2, 5.5, 5.65, 5.8, 6.0), by methods known in the art. As set out in the table below, the various samples also included isotonicity agent (NaCl, 7 mg/mL or mannitol 47 mg/mL) to achieve isotonicity. Some of the samples included […] (methionine 1 mg/mL, EDTA 1 mg/mL, or combination of EDTA 1 mg/mL and methionine 1 mg/mL). Each formulation (see Table below) was filled in a 10R glass vial sealed with a rubber stopper and an aluminium cap.
# The solutions were incubated at 40° C. at 75% RH, with samples taken at day 30 (1 month), and day 90 (3 months).
# Samples were evaluated by HPLC to determine the amount of intact peptide remaining at the various time points, by methods well known in the art, comparing the % Area of the intact peptide peak on the sampling day vs. % Area on Day 0.
# The HPLC method used an Agilent 1100 instrument. The mobile phases where HPLC Buffers A (A=0.1% TFA in water) and B (B=0.1% TFA in acetonitrile) with the gradient 20 to 30% B in 40 min, then 30 to 60% B in 15 min, then 60 to 20% B in 1 min and then 20% B for 10 min at flow rate 0.5 mL/min. The Zorbax 300SB C16, 3.0×150 mm, 3.5 μm, 300 Å column was at temperature 25 with UV detection at 214 nm. The injection volume was 15 μL
compound,measurement,setting,value
"CC[C@H](C)[C@@H]1NC(=O)[C@H](Cc2ccc(OC)cc2)NC(=O)CCCSC[C@@H](C(=O)N2CCC[C@H]2C(=O)N[C@@H](CC(C)C)C(=O)NCC(N)=O)NC(=O)[C@H](CC(N)=O)NC(=O)[C@H](CCC(N)=O)NC1=O [carbetocin, (1-desamino-1-monocarba-2(O-methyl)-tyrosine)oxytocin] (Y(Me)IQNCPLG-NH2; linker N-5 via X1)",bioavailability,"[1]; human, im",80%
same,half-life,"[1]; human, iv",approximately 40 minutes
same,half-life relative to the reported half-life of oxytocin,[1]; iv,4 to 10 times longer
same,time to peak plasma concentrations,[1],less than thirty minutes
CC[C@H](C)[C@@H]1NC(=O)[C@H](Cc2ccc(O)cc2)NC(=O)[C@@H](N)CSSC[C@@H](C(=O)N2CCC[C@H]2C(=O)N[C@@H](CC(C)C)C(=O)NCC(N)=O)NC(=O)[C@H](CC(N)=O)NC(=O)[C@H](CCC(N)=O)NC1=O [oxytocin],reported half-life,[1],4 to 10 min
carba-1-[4-FBzIGly^7]dOT [FE 202767],intact peptide remaining,[2]; after 176 days at 40° C. in citrate buffer at pH 5.0 and 5.5,> 95%
same,intact peptide remaining,"[2]; after 176 days at 40° C. in citrate-phosphate buffers, pH 5.0, 5.5 and 6.0, each condition",> 95%
same,degradation (in words),[2]; after 176 days at 40° C. in pH 6.0 citrate buffer,significant degradation
same,stability (in words),"[3]; citrate and acetate buffers in the pH range tested, after 30 days at 40° C.",good stability
same,stability (in words),"[3]; citrate and acetate buffers in the pH range tested, after 90 days at 40° C.",good stability
same,stability (in words),"[3]; succinate buffer at pH 5.0 to 5.65, after 30 days at 40° C.",very stable
same,stability (in words),"[3]; succinate buffer at pH 5.0 to 5.65, after 90 days at 40° C.",stable
